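Values below derive from 48-hour exposures of cells grown in 96-well plates, with endpoints linearly interpolated between the two concentrations bracketing the appropriate inhibition level. TGI: total growth inhibition.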
What was measured:
Experiment in all cases: NCI-60 cell line screen, 48 h
DU-145 prostate = tested on: DU-145 prostate
SK-MEL-28 melanoma = tested on: SK-MEL-28 melanoma
A498 renal = tested on: A498 renal
U251 CNS = tested on: U251 CNS
UACC-62 melanoma = tested on: UACC-62 melanoma
HL-60(TB) leukemia = tested on: HL-60(TB) leukemia
OVCAR-8 ovarian = tested on: OVCAR-8 ovarian
BT-549 breast = tested on: BT-549 breast
EKVX NSCLC = tested on: EKVX NSCLC
SN12C renal = tested on: SN12C renal
MALME-3M melanoma = tested on: MALME-3M melanoma
SK-MEL-5 melanoma = tested on: SK-MEL-5 melanoma
CAKI-1 renal = tested on: CAKI-1 renal
RXF 393 renal = tested on: RXF 393 renal
HOP-92 NSCLC = tested on: HOP-92 NSCLC
SF-295 CNS = tested on: SF-295 CNS
ACHN renal = tested on: ACHN renal
HCT-15 colon = tested on: HCT-15 colon
SR leukemia = tested on: SR leukemia
HCT-116 colon = tested on: HCT-116 colon
TK-10 renal = tested on: TK-10 renal
KM12 colon = tested on: KM12 colon
NCI-H522 lung = tested on: NCI-H522 lung
NCI-H460 lung = tested on: NCI-H460 lung
MCF7 breast = tested on: MCF7 breast
COLO 205 colon = tested on: COLO 205 colon
M14 melanoma = tested on: M14 melanoma
OVCAR-5 ovarian = tested on: OVCAR-5 ovarian
786-0 renal = tested on: 786-0 renal
SW-620 colon = tested on: SW-620 colon
OVCAR-3 ovarian = tested on: OVCAR-3 ovarian
OVCAR-4 ovarian = tested on: OVCAR-4 ovarian
SF-268 CNS = tested on: SF-268 CNS
SF-539 CNS = tested on: SF-539 CNS
MDA-MB-231 breast = tested on: MDA-MB-231 breast
UACC-257 melanoma = tested on: UACC-257 melanoma
MOLT-4 leukemia = tested on: MOLT-4 leukemia
HT29 colon = tested on: HT29 colon
PC-3 prostate = tested on: PC-3 prostate
HOP-62 NSCLC = tested on: HOP-62 NSCLC
HS 578T breast = tested on: HS 578T breast
T-47D breast = tested on: T-47D breast
LOX IMVI melanoma = tested on: LOX IMVI melanoma
NCI/ADR-RES ovarian = tested on: NCI/ADR-RES ovarian
SNB-19 CNS = tested on: SNB-19 CNS
IGROV1 ovarian = tested on: IGROV1 ovarian
CCRF-CEM leukemia = tested on: CCRF-CEM leukemia
SK-MEL-2 melanoma = tested on: SK-MEL-2 melanoma
NCI-H226 lung = tested on: NCI-H226 lung
RPMI-8226 leukemia = tested on: RPMI-8226 leukemia
UO-31 renal = tested on: UO-31 renal
K-562 leukemia = tested on: K-562 leukemia
MDA-MB-435 = tested on: MDA-MB-435
A549 NSCLC = tested on: A549 NSCLC
HCC-2998 colon = tested on: HCC-2998 colon
NCI-H23 lung = tested on: NCI-H23 lung

Measured: TGI

COc1ccc(C2=C3SC=c4ccccc4=C3ON=C2c2ccccc2)cc1
> 100 µM: DU-145 prostate | SK-MEL-28 melanoma | A498 renal | U251 CNS | UACC-62 melanoma | HL-60(TB) leukemia | OVCAR-8 ovarian | BT-549 breast | EKVX NSCLC | SN12C renal | MALME-3M melanoma | SK-MEL-5 melanoma | CAKI-1 renal | RXF 393 renal | HOP-92 NSCLC | SF-295 CNS | ACHN renal | HCT-15 colon | SR leukemia | HCT-116 colon | TK-10 renal | KM12 colon | NCI-H522 lung | NCI-H460 lung | MCF7 breast | COLO 205 colon | M14 melanoma | OVCAR-5 ovarian | 786-0 renal | SW-620 colon | OVCAR-3 ovarian | OVCAR-4 ovarian | SF-268 CNS | SF-539 CNS | MDA-MB-231 breast | UACC-257 melanoma | MOLT-4 leukemia | HT29 colon | PC-3 prostate | HOP-62 NSCLC | HS 578T breast | T-47D breast | LOX IMVI melanoma | NCI/ADR-RES ovarian | SNB-19 CNS | IGROV1 ovarian | CCRF-CEM leukemia | SK-MEL-2 melanoma | NCI-H226 lung | RPMI-8226 leukemia | UO-31 renal | K-562 leukemia | MDA-MB-435 | A549 NSCLC | HCC-2998 colon | NCI-H23 lung

— PubChem BioAssay (NCI)
